Results on one compound are retold here after patent US20240228543A1, “CYCLIC PEPTIDE INHIBITORS OF USP22” (THE JOHNS HOPKINS UNIVERSITY, priority 2021, published 2024).

For assay [1], the target named is T1, human DUB module (hDUBm; USP22, ATXN7, ATXN7L3, ENY2) (Homo sapiens, UniProt Q9UPT9).
T1 construct: 6xHis (TEV-cleavable) (N, cleaved yes); made in house; host or cells: High Five insect cells (baculovirus, Bac2Bac; virus amplified in Sf9)
Put plainly: Ub-AMC deubiquitination assay, human DUB module. Type of assay: biochemical. Particulars: Ki (apparent, Morrison approximation), Ub-AMC cleavage, 200 nM DUB, 1 μM Ub-AMC. The procedure:
FIG. 2A is a graph of initial rates of Ub-AMC cleavage by hDUB module as a function of substrate concentration. […] FIGS. 2B-2G are graphs of each cyclic peptide, as indicated, tested for its ability to inhibit Ub-AMC cleavage in the presence of increasing amounts of the peptide into a reaction with a fixed amount of DUB (200 nM) and Ub-AMC (1 μM). Ki values were determined for each curve using the Morrison Ki approximation.
Ub-AMC deubiquitination assay A working stock mixture of either yDUBm or hDUBm was prepared in the presence of either DMSO (mock) or a dilution series of the cyclic peptide. […] Each enzyme:peptide mixture was incubated for 30 min at 30° C. in the case of yDUBm, and 37° C. in the case of hDUBm, with each enzyme complex at 1.033× the desired concentration (207 nM). The enzyme:peptide mixture ([…]) was added to 1 μL of 30 μM U b-AMC (7-amino-4-methylcoumarin) (Boston Biochem), for a final concentration of 200 nM DUBm, the indicated cyclic peptide concentration, and 1 μM Ub-AMC. DUB activity was measured by observing the increase in AMC fluorescence in a plate reader, and the initial rate of fluorescence increase was calculated and plotted as a function of inhibitor concentration (FIGS. 2B-2I). The Ki values were determined using the Morrison approximation of enzyme inhibition equilibria within Prism (Graphpad).
The cyclic peptides that constituted potential inhibitors were chemically synthesized by solid phase peptide synthesis and tested for their effectiveness and specificity as inhibitors in vitro. Since the enzyme kinetics of the human DUB module had not previously been characterized, hDUBm activity was assayed using the fluorogenic substrate, ubiquitin-amino methyl coumarin (Ub-AMC) (FIG. 2A).

Assay [2] addresses T2, USP27x (Homo sapiens, UniProt A6NNY8).
T2 construct: purchased Ubiquigent (DUBprofiler panel)
T2 sequence (A6NNY8 1-438): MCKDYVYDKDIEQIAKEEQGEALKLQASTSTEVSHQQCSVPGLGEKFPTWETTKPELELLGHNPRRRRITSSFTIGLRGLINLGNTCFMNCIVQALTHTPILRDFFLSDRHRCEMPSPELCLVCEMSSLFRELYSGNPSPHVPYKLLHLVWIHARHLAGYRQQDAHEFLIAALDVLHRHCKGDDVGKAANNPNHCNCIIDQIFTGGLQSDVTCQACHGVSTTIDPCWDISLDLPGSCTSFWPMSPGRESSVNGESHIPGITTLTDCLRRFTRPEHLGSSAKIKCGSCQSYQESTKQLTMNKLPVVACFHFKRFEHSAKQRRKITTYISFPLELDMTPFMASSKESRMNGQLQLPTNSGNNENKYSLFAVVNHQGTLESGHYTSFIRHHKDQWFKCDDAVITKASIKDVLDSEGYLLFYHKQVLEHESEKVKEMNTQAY
The assay can be described thus: DUBprofiler panel, USP27x alone. Particulars: 1 μM hD1, USP27x alone without other subunits. Type of assay: biochemical. The procedure:
The human genome encodes about 80 active DUBs, 55 of which belong to the same USP structural family as USP22, thus presenting a challenge to the development of specific DUB inhibitors. […] The activity of each DUB was tested in the presence of a single concentration of inhibitor and compared with enzyme activity in the absence of compound. […] In this screen, however, USP27x alone was tested in the absence of other subunits.

Structures are written as SMILES. pKi: −log10 of the molar value. Where “and” joins values, the source holds several entries; their conditions need not be identical. Identical values can stand only once. Positions of bridges follow the written chain, without caps; N, C: chain ends. Non-standard residues stand in square brackets, D forms with d. Residues, ends and D or L forms follow the SMILES beside them.

T1 sequence (Q9UPT9 whole entry): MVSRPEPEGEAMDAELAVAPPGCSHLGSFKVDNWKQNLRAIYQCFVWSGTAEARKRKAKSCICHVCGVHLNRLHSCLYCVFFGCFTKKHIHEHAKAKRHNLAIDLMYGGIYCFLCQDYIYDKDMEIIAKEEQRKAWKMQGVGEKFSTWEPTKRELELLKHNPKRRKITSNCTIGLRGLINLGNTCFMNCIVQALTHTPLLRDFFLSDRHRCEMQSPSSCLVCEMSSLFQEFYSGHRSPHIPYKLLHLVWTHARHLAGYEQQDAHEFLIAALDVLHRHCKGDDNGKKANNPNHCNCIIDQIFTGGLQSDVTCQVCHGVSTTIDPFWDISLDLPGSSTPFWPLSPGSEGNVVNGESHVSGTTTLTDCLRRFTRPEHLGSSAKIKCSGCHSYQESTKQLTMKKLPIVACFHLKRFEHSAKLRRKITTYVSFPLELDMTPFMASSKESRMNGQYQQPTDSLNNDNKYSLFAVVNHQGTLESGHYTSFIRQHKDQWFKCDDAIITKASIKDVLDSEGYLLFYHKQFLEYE
T1 sequence (O15265 3-151 partner limits assumed): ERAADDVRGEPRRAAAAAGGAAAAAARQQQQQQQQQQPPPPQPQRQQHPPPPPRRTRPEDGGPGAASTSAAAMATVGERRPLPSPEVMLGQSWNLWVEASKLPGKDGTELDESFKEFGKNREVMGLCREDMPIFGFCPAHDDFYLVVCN
T1 sequence (Q14CW9 whole entry partner): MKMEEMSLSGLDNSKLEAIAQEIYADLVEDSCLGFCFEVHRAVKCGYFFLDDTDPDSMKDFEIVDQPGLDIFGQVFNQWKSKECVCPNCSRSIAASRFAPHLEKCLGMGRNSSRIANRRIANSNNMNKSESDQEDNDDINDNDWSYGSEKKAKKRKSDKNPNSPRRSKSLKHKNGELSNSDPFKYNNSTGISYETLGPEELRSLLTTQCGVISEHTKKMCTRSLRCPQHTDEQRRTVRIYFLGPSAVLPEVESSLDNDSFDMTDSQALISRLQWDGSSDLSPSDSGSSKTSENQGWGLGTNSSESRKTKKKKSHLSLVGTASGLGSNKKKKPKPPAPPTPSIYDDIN
T1 sequence (Q9NPA8 whole entry partner): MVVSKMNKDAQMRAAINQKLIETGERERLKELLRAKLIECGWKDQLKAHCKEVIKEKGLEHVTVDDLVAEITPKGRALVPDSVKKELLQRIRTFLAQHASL

Turning to `CC[C@H](C)[C@@H]1NC(=O)[C@H](C)NC(=O)[C@@H](Cc2ccc(O)cc2)NC(=O)CSC[C@@H](C(N)=O)NC(=O)[C@H](CC(C)C)NC(=O)[C@H](CC(C)C)NC(=O)[C@H]([C@@H](C)O)NC(=O)[C@H]([C@@H](C)O)NC(=O)[C@H](CCCCN)NC(=O)CNC(=O)[C@H](CCCNC(=N)N)NC(=O)[C@H](Cc2ccc(O)cc2)NC(=O)[C@H](CO)NC1=O` [hD1] ({CH2CO}-[dY]AISYRGKTTLLC-NH2; thioether N-13), the pKi in assay [1] is > 7.00 and 7.69. Further, in assay [2], the “reduction of USP27x activity” value is on record as about 50%.
